Source: patent publication US20220304978A1, “INHIBITING MESANGIAL CELL ACTIVATION” (Chinook Therapeutics, Inc., priority 2019, published 2022)

System: kidney tissue of g-ddY mice
Assay: RNA-seq differential gene expression in kidney tissue of g-ddY mice
Type: in vivo, mouse
Description: RNA isolation and sequencing libraries were generated using standard protocols. Sequencing was performed using an Illumina NextSeq500 using manufacturer's instructions with a read length of 75 bp and a read depth of 30 million. Raw data was assembled to FASTQ files. Following QC analysis, high quality sequencing reads (e.g., reads with a Phred quality score >36) were aligned to the mouse reference genome (GRCm38-mm10) using the default parameters of the align algorithm and transcript count tables of each library was generated using the default parameters of the featureCounts algorithm of the RSubread package (Liao Y, Smyth GK, Shi W, 2019). High quality sequencing reads mapped to 27,129 genes. Following additional QC of low count filtering (i.e. transcripts <10 counts across all samples), 16,207 genes were identified and used for further analysis. The remaining sequencing read counts of the included 16,207 genes were normalized to library size, log-transformed, and were quantified as counts per million (CPM). Select RNA-seq counts were validated using qPCR. Sequencing read counts (CPM) were used for identification of differential gene expression between specified populations using the quasi-likelihood methodology of the edgeR package. […] MA plots were generated using edgeR. Heatmaps and other plots were generated using the gplots and ggplot2 package.

[1] = 10 mg/kg/day vs control, IL6 signaling
[2] = 10 mg/kg/day vs control, NF-kB signaling
[3] = 10 mg/kg/day vs control, PDGF signaling
[4] = 10 mg/kg/day vs control, cell proliferation signaling
[5] = 10 mg/kg/day vs control, inflammatory response signaling
[6] = 10 mg/kg/day vs control, mesangial cell signature
[7] = 20 mg/kg/day vs control, IL6 signaling
[8] = 20 mg/kg/day vs control, NF-kB signaling
[9] = 20 mg/kg/day vs control, PDGF signaling
[10] = 20 mg/kg/day vs control, cell proliferation signaling

CCCCN(CCCC)C(=O)CN1C[C@H](c2ccc3c(c2)OCO3)[C@@H](C(=O)O)[C@@H]1c1ccc(OC)cc1 [atrasentan, (2R,3R,4S)-4-(1,3-benzodioxol-5-yl)-1-[2-(dibutylamino)-2-oxoethyl]-2-(4-methoxyphenyl)pyrrolidine-3-carboxylic acid]
Cntfr logFC [1]: −0.8669 | Csf1 logFC [1]: −0.8332 | Il1b logFC [1]: −1.684 | Il1r1 logFC [1]: −0.2988 | Il2ra logFC [1]: −0.8599 | Map3k8 logFC [1]: −0.3558 | Ackr3 logFC [2]: 0.2851 | Atf3 logFC [2]: −1.514 | Btg1 logFC [2]: −0.3745 | Btg2 logFC [2]: −0.424 | Ccl20 logFC [2]: −1.273 | Ccnd1 logFC [2]: 0.453 | Cdkn1a logFC [2]: 0.5583 | Csf1 logFC [2]: −0.8332 | Cxcl2 logFC [2]: −1.19 | Dnajb4 logFC [2]: −0.3683 | Edn1 logFC [2]: −1.006 | Efna1 logFC [2]: 0.6938 | Ehd1 logFC [2]: 0.2563 | F3 logFC [2]: −0.4963 | Fosl2 logFC [2]: −0.8662 | Id2 logFC [2]: 0.1663 | Ifit2 logFC [2]: −0.471 | Il1b logFC [2]: −1.684 | Jag1 logFC [2]: −0.4199 | Klf2 logFC [2]: −0.4894 | Klf4 logFC [2]: −0.5493 | Map3k8 logFC [2]: −0.3558 | Nfat5 logFC [2]: −0.3118 | Nfkb1 logFC [2]: −0.3424 | Nfkbia logFC [2]: −0.5525 | Nr4a2 logFC [2]: −1.3802 | Nr4a3 logFC [2]: −1.143 | Per1 logFC [2]: −0.4162 | Pfkfb3 logFC [2]: −1.166 | Pnrcl logFC [2]: 0.2635 | Rel logFC [2]: −0.7218 | Rhob logFC [2]: −0.533 | Serpine1 logFC [2]: −0.7169 | Snn logFC [2]: 0.3517 | Spsb1 logFC [2]: −0.6157 | Tnfaip8 logFC [2]: 0.273 | Traf1 logFC [2]: −0.5182 | Trib1 logFC [2]: −0.6481 | Zbtb10 logFC [2]: −0.2335 | Hras logFC [3]: 0.1887 | Map3k1 logFC [3]: −0.3825 | Nfkb1 logFC [3]: −0.3424 | Nfkbia logFC [3]: −0.5525 | Pdgfb logFC [3]: −0.3414 | Pdgfra logFC [3]: −0.51 | Pik3cg logFC [3]: −0.5882 | Pik3r1 logFC [3]: −0.4253 | Pla2g4a logFC [3]: −0.6999 | Tiam1 logFC [3]: −0.7456 | Arid4a logFC [4]: −0.2777 | Atrx logFC [4]: −0.2463 | Bcar1 logFC [4]: 0.3379 | Ccdc88a logFC [4]: −0.5602 | Ccnd1 logFC [4]: 0.453 | Cep192 logFC [4]: −0.4211 | Cntrl logFC [4]: −0.289 | Dmd logFC [4]: −0.3335 | Epb41l2 logFC [4]: −0.4376 | Fgd6 logFC [4]: −0.2369 | Flna logFC [4]: −0.4162 | Itsn1 logFC [4]: −0.2276 | Kmt5a logFC [4]: 0.2601 | Meis1 logFC [4]: −0.2507 | Myh9 logFC [4]: −0.2093 | Myh10 logFC [4]: −0.3068 | Myo1e logFC [4]: −0.2349 | Nin logFC [4]: −0.3393 | Ophn1 logFC [4]: −0.4999 | Rapgef5 logFC [4]: −0.2732 | Rhot2 logFC [4]: 0.4727 | Slc7a1 logFC [4]: −0.396 | Slc12a2 logFC [4]: −0.2507 | Slc38a1 logFC [4]: −0.4971 | Smc3 logFC [4]: −0.2304 | Sorbs2 logFC [4]: −0.3958 | Tiam1 logFC [4]: −0.7456 | Tuba4a logFC [4]: 0.2738 | Vcl logFC [4]: −0.2001 | Ythdc1 logFC [4]: −0.1936 | Btg2 logFC [5]: −0.424 | Ccl20 logFC [5]: −1.273 | Cdkn1a logFC [5]: 0.5583 | Chst2 logFC [5]: −0.5212 | Csf1 logFC [5]: −0.8332 | Edn1 logFC [5]: −1.006 | Eif2ak2 logFC [5]: −0.272 | F3 logFC [5]: −0.4963 | Gabbr1 logFC [5]: −0.02473 | Hpn logFC [5]: 0.4007 | Il1b logFC [5]: −1.684 | Il1r1 logFC [5]: −0.2988 | Ly6e logFC [5]: 0.1666 | Nfkb1 logFC [5]: −0.3424 | Nfkbia logFC [5]: −0.5525 | Rnf144b logFC [5]: −0.7108 | Ros1 logFC [5]: −2.078 | Serpine1 logFC [5]: −0.7169 | Slc4a4 logFC [5]: 0.5123 | Slc7a1 logFC [5]: −0.396 | Slc7a2 logFC [5]: −0.8315 | Slc11a2 logFC [5]: 0.3192 | Ahnak logFC [6]: −0.5756 | Akap12 logFC [6]: −0.2687 | Akt3 logFC [6]: −0.3863 | Aldob logFC [6]: 0.4194 | Ankrd12 logFC [6]: −0.2824 | C7 logFC [6]: −0.7767 | Cald1 logFC [6]: −0.3719 | Cblb logFC [6]: −0.082 | Ebf1 logFC [6]: −0.3301 | Epb41l2 logFC [6]: −0.4375 | Ets1 logFC [6]: −0.2198 | Fchsd2 logFC [6]: −0.2564 | Frmd4a logFC [6]: −0.2838 | Gata3 logFC [6]: −0.4822 | Gpx3 logFC [6]: 0.6802 | Igfbp7 logFC [6]: 0.2052 | Lama2 logFC [6]: −0.2955 | Maml2 logFC [6]: −0.2318 | Meis1 logFC [6]: −0.2507 | Myh9 logFC [6]: −0.2094 | Myo1e logFC [6]: −0.2349 | Nbea logFC [6]: −0.2819 | Nfkbia logFC [6]: −0.5525 | Piezo2 logFC [6]: −0.4078 | Postn logFC [6]: −1.385 | Pparg logFC [6]: −0.6129 | Ppp1r12a logFC [6]: −0.1995 | Prkg1 logFC [6]: −0.2187 | Psd3 logFC [6]: −0.3544 | Ptprm logFC [6]: −0.2614 | Rapgef5 logFC [6]: −0.2732 | Raph1 logFC [6]: −0.2965 | Rbms3 logFC [6]: −0.5749 | Robo1 logFC [6]: −0.4803 | Stard13 logFC [6]: −0.7224 | Tacc1 logFC [6]: −0.2449 | Tcf4 logFC [6]: −0.2176 | Tjp1 logFC [6]: −0.2489 | Tns3 logFC [6]: −0.2638 | Unc5c logFC [6]: 0.5618 | Utrn logFC [6]: −0.49 | Cntfr logFC [7]: −0.8574 | Csf1 logFC [7]: −1.089 | Il1r1 logFC [7]: −0.8263 | Il2ra logFC [7]: −0.959 | Map3k8 logFC [7]: −0.8222 | Ackr3 logFC [8]: 0.4917 | Atf3 logFC [8]: −2.107 | Btg1 logFC [8]: −0.5187 | Btg2 logFC [8]: −0.6974 | Ccn1 logFC [8]: −1.087 | Ccnd1 logFC [8]: 0.644 | Cdkn1a logFC [8]: 0.2546 | Csf1 logFC [8]: −1.089 | Cxcl2 logFC [8]: −2.5772 | Dnajb4 logFC [8]: −0.3548 | Edn1 logFC [8]: −1.328 | Efna1 logFC [8]: 0.286 | Ehd1 logFC [8]: 0.2715 | F3 logFC [8]: −0.5235 | Fosl2 logFC [8]: −1.122 | Gem logFC [8]: −1.237 | Id2 logFC [8]: 0.2228 | Ifit2 logFC [8]: −0.6323 | Jag1 logFC [8]: −0.3939 | Klf2 logFC [8]: −0.4816 | Klf4 logFC [8]: −0.904 | Map3k8 logFC [8]: −0.8222 | Nfat5 logFC [8]: −0.323 | Nfkb1 logFC [8]: −0.616 | Nfkbia logFC [8]: −0.7041 | Nr4a1 logFC [8]: −1.621 | Nr4a2 logFC [8]: −1.111 | Nr4a3 logFC [8]: −1.113 | Per1 logFC [8]: −0.1216 | Pfkfb3 logFC [8]: −1.125 | Pnrcl logFC [8]: 0.04156 | Rel logFC [8]: −1.0782 | Rhob logFC [8]: −0.5419 | Serpine1 logFC [8]: −1.501 | Snn logFC [8]: 0.4753 | Spsb1 logFC [8]: −0.654 | Tnfaip8 logFC [8]: 0.4 | Traf1 logFC [8]: −1.485 | Trib1 logFC [8]: −0.7668 | Zbtb10 logFC [8]: −0.2586 | Hras logFC [9]: 0.06802 | Map3k1 logFC [9]: −0.7203 | Nfkb1 logFC [9]: −0.616 | Nfkbia logFC [9]: −0.7041 | Pdgfb logFC [9]: −0.8375 | Pdgfra logFC [9]: −0.658 | Pik3cg logFC [9]: −1.096 | Pik3r1 logFC [9]: −0.4284 | Pla2g4a logFC [9]: −0.8381 | Tiam1 logFC [9]: −0.9494 | Arid4a logFC [10]: −0.196 | Atrx logFC [10]: −0.2188 | Bcar1 logFC [10]: 0.346 | Ccdc88a logFC [10]: −0.6374 | Ccnd1 logFC [10]: 0.644 | Cep192 logFC [10]: −0.4173 | Cntrl logFC [10]: −0.3963 | Dmd logFC [10]: −0.3485 | Epb41l2 logFC [10]: −0.6149 | Fgd6 logFC [10]: −0.3419 | Flna logFC [10]: −0.7842 | Itsn1 logFC [10]: −0.2752 | Kmt5a logFC [10]: 0.2873 | Meis1 logFC [10]: −0.3593 | Myh9 logFC [10]: −0.4543 | Myh10 logFC [10]: −0.1801 | Myo1e logFC [10]: −0.292 | Nin logFC [10]: −0.4236 | Ophn1 logFC [10]: −0.7587
